Measured values: patent US7550476B2, “Condensed polycyclic compounds” (Mitsubishi Tanabe Pharma Corporation, priority 2001, dated 2009)

System: mouse (BDF1 strain, male)
Assay: Single-dose subcutaneous toxicity in mouse
Assay type: in vivo
Conditions: single dose 100 mg/kg subcutaneously, n=3, checked for 1 day
Description: Further, the compounds [I] and compounds [I-C] of the present invention have the merit of being less toxic, and highly safe as a medicine. For example, 8,9-dimethoxy-6-phenyl-1,3,4,6,11,11a-hexahydro-2H-pyrazino[1,2-b]-isoquinoline was subcutaneously administered to a mouse (BDF1 strain, male, n=3) in a single dose (100 mg/kg) and the progress was checked for 1 day.

Compound | death
COc1cc2c(cc1OC)C(c1ccccc1)N1CCNCC1C2 (centres unmarked) [Compound A, 8,9-dimethoxy-6-phenyl-1,3,4,6,11,11a-hexahydro-2H-pyrazino[1,2-b]isoquinoline] | no death was observed

System: not given
Assay: not given
Conditions: not given

melting point | Compound
198 to 203 °C (dec.) | COc1cc2c(cc1OC)C(c1ccccc1)N1CCN(Cc3ccccc3)CC1C2.Cl.Cl (centres unmarked)
> 220 °C | COc1cc2cc(CO)c(CO)c(-c3ccnc(C4C(=O)CCCC4=O)c3)c2cc1OC
180 to 185 °C (dec.) | COc1cc2c(cc1OC)C(c1ccc(OC(C)C)cc1)N1CCNCC1C2.Cl.Cl (centres unmarked)

The remaining lines, values behind:

Compound | melting point
COc1cc2c(cc1OC)C(c1ccccc1)N1CCN(CSC)CC1C2.Cl.Cl (centres unmarked) | 217 to 220 °C (dec.)
COc1cc2c(cc1OC)C(c1ccccc1)N1CCN(CC(=O)O)CC1C2.Cl.Cl (centres unmarked) | 214 to 217 °C (dec.)
COc1cc2c(cc1OC)C(c1ccccc1)N1CCN(C(=O)c3ccccc3)CC1C2.Cl (centres unmarked) | 229 to 233 °C (dec.)
COc1cc2cc(COC(C)=O)c(COC(C)=O)c(-c3ccnc(C4C(=O)CCCC4=O)c3)c2cc1OC | 210 to 213 °C
